From article PMC11035632, “Discovery of gefitinib-1,2,3-triazole derivatives against lung cancer via inducing apoptosis and inhibiting the colony formation” (Scientific Reports, 2024)

Legend:
NCI-H1437 cells = assay: CCK-8 assay for cell proliferation and cytotoxicity, NCI-H1437; assay type: cell-based; settings: Homo sapiens, CCK-8, 48 h, read-out: IC50 1437
Method: (§1) Three types of lung cells were seeded into 96-well plate at a density of 5 × 10^3 cells per well at logarithmic growth phase and cultured in 37 °C. […] After that, cell viability was determined according to the instruction of the CCK-8 assay. Next, 10 μL of CCK-8 solution was added to each well of the plate and incubate the plate for 1–4 h in the incubator. The absorbance was measured at 450 nm using a microplate reader (Bio-Tek). The percentage of viable cells was measured using the following formula where three independent experiments were performed: [(A450 sample − A450blank)/(A450 control − A450blank)] × 100%.

A549 cells = assay: CCK-8 assay for cell proliferation and cytotoxicity, A549; assay type: cell-based; settings: Homo sapiens, CCK-8, 48 h
Method: A549 cells were cultured in a humidified incubator at 37 °C with 5% CO2 in Ham’s F-12 K (PM150910, Procell) supplemented with 10% FBS and 1% Penicillin Streptomycin.
as §1

NCI-H1299 cells = assay: CCK-8 assay for cell proliferation and cytotoxicity, NCI-H1299; assay type: cell-based; settings: Homo sapiens, CCK-8, 48 h
Method: as §1

[1] = test system: Bcl-2, caspase9, Cleaved-Caspase3, Cleaved-PARP, MMP9 in H1299 cells; assay: Western blot of apoptosis- and migration-related proteins; assay type: cell-based, human; settings: H1299, 4, 8 or 16 μM, 48 h
Source text: We conducted an in-depth investigation into the mechanism of apoptosis induced by compounds 7a and 7j. The Bcl-2 protein family is located upstream of the apoptosis signaling pathway. Bcl-2 proteins play an anti-apoptotic role by inhibiting the release of cytochrome C (cyt-c) from mitochondria. Previous literature reports that many anticancer drugs induce apoptosis by downregulating Bcl-2 expression. During apoptosis, the expression of Bcl-2 is inhibited, cyt-c is released, and it binds with the apoptotic protease activation factor to form the apoptosome. This triggers a cascade reaction of Caspase family proteins, with apoptosome promoting the activation of Caspase9. Activated Caspase9 then activates Caspase3, forming the Caspase3 cleavage body, which further activates downstream PARP protein, ultimately promoting cell apoptosis. […] After treating H1299 cells with different concentrations of compounds for 48 h, cell proteins were extracted, and western blot was used to detect the expression changes of apoptosis-related proteins.
Firstly, H1299 cells were treated with different concentrations concentrations of 7a and 7j at 4, 8 and 16 μmol/L for 48 h, cells were harvested using RIPA lysate (R0010, Solarbio) and centrifuged at 12,000 rpm for 15 min at 4 °C, and then the concentration of total protein was measured and taken from the supernatant. Protein was separated by 12% SDS–polyacrylamide gel electrophoresis and transferred to nitrocellulose filter membrane. after blocking in 5% milk for 2 h, the membranes were incubated with specific primary antibody at 4 °C overnight. Next day, NC membranes were incubated for 1 h at room temperature with appropriate secondary antibodies, and then Protein bands was visualizing by chemiluminescence detection (ECL kit, Genview).

H1299 cells [2] = assay: Flow cytometry detection of apoptosis (Annexin V-EGFP/PI); assay type: cell-based, human; settings: 48 h
Method: H1299 cells were treated with different concentrations of 7a and 7j for 48 h. The cells were stained with Annexin-V and PI, and the proportion of apoptotic cells was detected using flow cytometry.
H1299 cells were seeded in a 6-well plate at a density of 1 × 10^5 cells/well and incubated for 24 h. On the following day, the medium was replaced with fresh medium containing 7a or 7j (2, 4 and 8 μmol/L) and cells were incubated for an additional 48 h. Cell apoptosis was detected using Annexin V-EGFP/PI apoptosis detection Kit by flow cytometry. Subsequently, 5 µl of […] Annexin V and 10 µl of PI was added to the cell suspension, gently vortexed, and incubated at room temperature in the dark for 20 min, then single-cell suspension was prepared followed by flow cytometry (BD Accuri™ C6 Plus).

H1299 cells [3] = assay: Transwell migration assay; assay type: cell-based, human; settings: H1299, 2, 4 and 8 μmol/L, 24 h, vs normal control, p < 0.01
Method: Transwell chamber migration assay is another important method to assess cell migration ability. Tumor cells are seeded in the chamber, and the number of tumor cells that pass through the membrane is counted to evaluate the migration ability of tumor cells.
Transwell assay was used to determine the migration ability of H1299 cells. Cells were starved in serum-free RPMI 1640 medium for 24 h, then detached and resuspended in serum-free RPMI 1640 medium. 5 × 10^5 cells/mL were inoculated into the upper chamber of a 24-well Transwell plate (Corning Inc., United States), with a volume of 100 µl per well. Then, 100 µL serum-free medium containing 7a or 7j (2, 4 and 8 μmol/L) was added to the upper chamber and the lower chamber was filled with 700 µL medium containing 20% FBS. After incubation for 24 h, H1299 cells on the upper membrane of the transwell were wiped off. The migrated cells were treated with 4% paraformaldehyde for 20 min, stained with 0.1% crystal violet for 20 min and washed three times with PBS. The number of H1299 cells that migrated to the underside of the membrane was counted under the inverted fluorescence microscope. Three randomly selected areas from each transwell were photographed and calculated using Image J.

L02 cells = assay: Cytotoxicity / survival rate in normal hepatocytes L02; assay type: cell-based; settings: for Survival rate %, 48 h: L02 cells
H1299 cells [4] = assay: Colony formation assay; assay type: cell-based, human; settings: 7 days
Source text: The colony formation assay is an important method for evaluating the ability of adherent cells to proliferate and form colonies on a plate, and it is widely used to assess cell proliferation. We also employed the colony formation assay to further confirm that compounds 7a and 7j can inhibit the proliferation of lung cancer cells, as shown in Fig. 5. After treating lung cancer cells with low, medium, and high concentrations (1, 2, 4 μmol/L) of compounds for 7 days, the number of cell colonies was counted to analyze the proliferation inhibition rate.
H1299 cells were seeded in six-well plates at a density of 500 cells per well and treated with 7a or 7j (1, 2 and 4 μmol/L) for 7 days. Then, cells were per-fixed with 4% paraformaldehyde for 30 min, stained with 0.1% Crystal violet for 15 min, and then washed with pure water. Taking a picture after the plates were air-dry. The clone formations number was counted with Image J.

H1299 cells [5] = assay: Wound healing assay; assay type: cell-based, human; settings: 24 h
Method: H1299 cells were seeded in a 6-well plate, When the cell confluency reached 95%, a wound line was scratched using a 200 µl pipette tip, and then washed three times, fresh medium containing 7a or 7j (2, 4 and 8 μmol/L) was added, and the plate was incubated at 37 °C with 5% CO2. All the images were captured at 0 h and 24 h under an inverted microscope, and the quantification of scratches was analysed using Image J.

H1299 cells [6] = assay: DAPI staining for cell apoptosis; assay type: cell-based, human; settings: H1299, 2, 4 and 8 μmol/L, 48 h
Method: In order to further verify the apoptotic activity induced by 7a and 7j in lung cancer cells, H1299 cells were treated with different concentrations of compounds 7a and 7j for 48 h, followed by DAPI staining. […] As the drug concentration increased, nuclear staining intensified, and even nuclear condensation and fragmentation phenomena were observed.
H1299 (1.5 × 10^4 ~ 2 × 10^4 /well) cells were seeded in 24-well plates for 24 h, and then treated with 7a or 7j at the concentrations of 2,4 and 8 μmol/L for 48 h., the cells were fixed for 30 min at room temperature in 4% paraformaldehyde and washed 3 times in PBS. Finally, every well was stained with DAPI (10 µg/mL, C0065, Solarbio) at room temperature for 30 min, and washed at least three times in PBS. The fluorescence microscope was used to observe the morphological changes of cell nuclei.

COc1cc2ncnc(Nc3cccc(-c4cn(Cc5c(F)cccc5Cl)nn4)c3)c2cc1OCCCN1CCOCC1 [Compound 7d]
IC50 (NCI-H1437 cells): 4.83 ± 0.16 µM
IC50 (A549 cells): 8.5 ± 0.41 µM
IC50 (NCI-H1299 cells): 6.04 ± 0.41 µM

COc1cc2ncnc(Nc3cccc(-c4cn(Cc5ccccc5F)nn4)c3)c2cc1OCCCN1CCOCC1 [Compound 7g, N-(3-(1-(2-fluorobenzyl)-1H-1,2,3-triazol-4-yl)phenyl)-7-methoxy-6-(3-morpholinopropoxy)quinazolin-4-amine]
IC50 (NCI-H1437 cells): 1.66 ± 0.18 µM
IC50 (A549 cells): 6.23 ± 0.12 µM
IC50 (NCI-H1299 cells): 5.97 ± 0.36 µM

COc1cc2ncnc(Nc3cccc(-c4cn(Cc5cccc(Cl)c5)nn4)c3)c2cc1OCCCN1CCOCC1 [Compound 7j]
Bcl-2 protein expression level [1]: decrease
Cleaved-Caspase3 protein expression level [1]: increased
Cleaved-PARP protein expression level [1]: increased
MMP9 protein expression [1]: downregulated
caspase9 protein expression level [1]: decrease
total apoptotic cell proportion (H1299 cells [2]; H1299, 2 μmol/L): 14.97 ± 1.54%
total apoptotic cell proportion (H1299 cells [2]; H1299, 4 μmol/L): 27.07 ± 2.77%
total apoptotic cell proportion (H1299 cells [2]; H1299, 8 μmol/L): 65.77 ± 2.93%
number of cells passing through the membrane to the lower surface of the chamber (H1299 cells [3]): significantly decreased
IC50 (NCI-H1437 cells): 1.69 ± 0.25 µM
IC50 (L02 cells; Homo sapiens, normal hepatocytes L02): 17.7 ± 0.52 µM
Survival rate %, 48 h (L02 cells; 2 μM): 94.49 ± 4.11%
Survival rate %, 48 h (L02 cells; 4 μM): 89.12 ± 5.50%
Survival rate %, 48 h (L02 cells; 8 μM): 75.59 ± 2.65%
Survival rate %, 48 h (L02 cells; 16 μM): 59.14 ± 1.54%
Survival rate %, 48 h (L02 cells; 32 μM): 24.48 ± 3.68%
formation of H1299 cell colonies (H1299 cells [4]; 1 μmol/L): markedly inhibit
colony formation (H1299 cells [4]; H1299, 4 μmol/L): almost completely suppressed
migration closure rate (H1299 cells [5]; H1299, 2 μmol/L): 72.57 ± 3.43%
migration closure rate (H1299 cells [5]; H1299, 4 μmol/L): 60.91 ± 8.48%
migration closure rate (H1299 cells [5]; H1299, 8 μmol/L): 48.88 ± 3.23%
apoptotic morphology by DAPI staining (H1299 cells [6]): exhibited typical apoptotic features
IC50 (A549 cells): 3.86 ± 0.38 µM
IC50 (NCI-H1299 cells): 3.84 ± 0.22 µM

COc1cc2ncnc(Nc3cccc(-c4cn(Cc5ccc(Cl)cc5)nn4)c3)c2cc1OCCCN1CCOCC1 [Compound 7k]
IC50 (NCI-H1437 cells): 2.9 ± 0.23 µM
IC50 (A549 cells): 4.91 ± 0.52 µM
IC50 (NCI-H1299 cells): 6.9 ± 0.23 µM

COc1cc2ncnc(Nc3cccc(-c4cn(Cc5ccc(Cl)c(F)c5)nn4)c3)c2cc1OCCCN1CCOCC1 [Compound 7c]
IC50 (NCI-H1437 cells): 3.08 ± 0.47 µM
IC50 (A549 cells): 5.68 ± 0.14 µM
IC50 (NCI-H1299 cells): 6.24 ± 0.32 µM

COc1cc2ncnc(Nc3cccc(-c4cn(Cc5cc(F)ccc5C#N)nn4)c3)c2cc1OCCCN1CCOCC1 [Compound 7n]
IC50 (NCI-H1437 cells): 4.67 ± 0.28 µM
IC50 (A549 cells): 3.78 ± 0.03 µM
IC50 (NCI-H1299 cells): 6.02 ± 0.24 µM

COc1cc2ncnc(Nc3cccc(-c4cn(Cc5ccccc5[N+](=O)[O-])nn4)c3)c2cc1OCCCN1CCOCC1 [Compound 7e]
IC50 (NCI-H1437 cells): 2.22 ± 0.18 µM
IC50 (A549 cells): 4.38 ± 0.07 µM
IC50 (NCI-H1299 cells): 5.81 ± 0.12 µM

COc1cc2ncnc(Nc3cccc(-c4cn(-c5cccc([N+](=O)[O-])c5)nn4)c3)c2cc1OCCCN1CCOCC1 [Compound 7s]
IC50 (NCI-H1437 cells): 8.21 ± 0.13 µM
IC50 (A549 cells): 11 ± 0.25 µM
IC50 (NCI-H1299 cells): 9.68 ± 0.21 µM

COc1cc2ncnc(Nc3cccc(-c4cn(Cc5ccc([N+](=O)[O-])cc5)nn4)c3)c2cc1OCCCN1CCOCC1 [Compound 7f]
IC50 (NCI-H1437 cells): 3.95 ± 0.45 µM
IC50 (A549 cells): 16.4 ± 1.07 µM
IC50 (NCI-H1299 cells): 5.65 ± 0.16 µM
